Experimental data as given in a compilation of properties of binary mixtures (doi:10.1016/j.molliq.2010.03.018).

Test: xn = mol fraction of the nth substance listed
Conditions: 101 kPa

CCOCC(C)O (stereo not drawn) + CCCC[n+]1ccn(C)c1.F[P-](F)(F)(F)(F)F
speed of sound [m/s]
Conditions | x1 = 0.0532 | x1 = 0.172 | x1 = 0.255 | x1 = 0.3298 | x1 = 0.5031 | x1 = 0.6555 | x1 = 0.8423 | x1 = 0.9 | x1 = 0.9474
288.15 K | 1462 | 1449.6 | 1437.8 | – | 1390.7 | – | – | – | –
298.15 K | 1437 | 1424.7 | 1412.6 | 1399.7 | 1363.1 | 1325.5 | – | 1260.4 | 1247.7
308.15 K | 1414.1 | 1400.1 | – | 1374.8 | 1336.2 | 1296 | 1242.1 | 1225.4 | –

COCC(C)O (stereo not drawn) + CCCC[n+]1ccn(C)c1.F[P-](F)(F)(F)(F)F
speed of sound [m/s]
Conditions | x1 = 0.0426 | x1 = 0.126 | x1 = 0.2396 | x1 = 0.4116 | x1 = 0.5071 | x1 = 0.6847 | x1 = 0.8536 | x1 = 0.9447
288.15 K | 1464.5 | 1458.3 | 1449.3 | – | 1420.4 | 1390.4 | – | 1322.3
298.15 K | 1439.7 | 1433.7 | 1424.6 | – | 1393.6 | 1360.9 | 1316.9 | 1286.9
308.15 K | 1416.2 | – | 1400.6 | 1381.5 | 1367.3 | 1331.8 | – | 1251.5

COCCOCCO + CCCC[n+]1ccn(C)c1.F[P-](F)(F)(F)(F)F
speed of sound [m/s]
Conditions | x1 = 0.1008 | x1 = 0.2217 | x1 = 0.3398 | x1 = 0.4582 | x1 = 0.519 | x1 = 0.6876 | x1 = 0.8005 | x1 = 0.8758 | x1 = 0.9136
288.15 K | – | 1469 | 1473 | 1478.1 | 1480.6 | 1484.3 | – | – | 1474.1
298.15 K | 1443.7 | – | 1448 | 1452.2 | – | 1455.5 | 1451.5 | 1445.7 | 1441.7
308.15 K | 1420.3 | 1420.8 | 1423.5 | 1426.6 | 1427.8 | – | – | 1414.2 | 1409.4
